IC50 and Activity data for three molecules are collected here from ChEMBL document CHEMBL1148057, “1'-(2-Phenyl-ethylene)-ditryptophenaline, a new dimeric diketopiperazine from Aspergillus flavus” (J Nat Prod, 1994).

In assay [1] the target is T1, Substance-P receptor (Homo sapiens, UniProt P25103). As to the kind of experiment: Inhibition of substance P receptor.
In assay [2] the target is T1, Substance-P receptor. As to the kind of experiment: Inhibition of substance P receptor at 100 uM.

SMILES strings stand for the structures. Calls of active or inactive are those of the source. No cut-off for these calls is given here.

T1 sequence (P25103 whole entry): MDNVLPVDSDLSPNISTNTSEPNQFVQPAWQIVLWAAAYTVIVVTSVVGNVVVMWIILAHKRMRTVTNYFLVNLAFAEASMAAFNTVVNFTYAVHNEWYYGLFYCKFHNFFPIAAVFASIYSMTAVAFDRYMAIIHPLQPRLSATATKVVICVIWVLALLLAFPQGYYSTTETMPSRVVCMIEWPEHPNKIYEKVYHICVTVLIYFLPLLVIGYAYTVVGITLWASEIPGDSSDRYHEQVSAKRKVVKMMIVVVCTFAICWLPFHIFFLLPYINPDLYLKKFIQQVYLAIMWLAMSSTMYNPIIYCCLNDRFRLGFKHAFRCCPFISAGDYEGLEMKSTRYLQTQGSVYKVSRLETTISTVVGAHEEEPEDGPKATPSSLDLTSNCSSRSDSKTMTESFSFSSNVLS

As to `O=C1N[C@@H](Cc2ccccc2)C(=O)N2[C@H]3Nc4ccccc4[C@@]3([C@]34C[C@H]5C(=O)N[C@@H](Cc6ccccc6)C(=O)N5[C@H]3Nc3ccccc34)C[C@@H]12`, half-maximal inhibition against Substance-P receptor [1] (IC50) was put at 0.23 µM. As to `CN1C(=O)[C@@H]2C[C@@]3([C@@]45C[C@H]6C(=O)N(C)[C@@H](Cc7ccccc7)C(=O)N6[C@@H]4N(/C=C/c4ccccc4)c4ccccc45)c4ccccc4N[C@H]3N2C(=O)[C@@H]1Cc1ccccc1`, the outcome on Substance-P receptor [2] was inactive. With `CN1C(=O)[C@@H]2C[C@@]3([C@@]45C[C@H]6C(=O)N(C)[C@@H](Cc7ccccc7)C(=O)N6[C@@H]4Nc4ccccc45)c4ccccc4N[C@H]3N2C(=O)[C@@H]1Cc1ccccc1` [DITRYPTOPHENALINE], on Substance-P receptor [1], the IC50 (commonly the concentration needed to halve the response being measured) is 12 µM.
